{"source": "patent US9387221B2", "about": "“SDF-1 binding nucleic acids and the use thereof in cancer treatment” (NOXXON Pharma AG, priority 2010, dated 2016)", "key": {"CXCR4 [1]": {"molecular_target": "CXCR4 (Homo sapiens, UniProt P61073)", "sequence (P61073 whole entry, species assumed)": "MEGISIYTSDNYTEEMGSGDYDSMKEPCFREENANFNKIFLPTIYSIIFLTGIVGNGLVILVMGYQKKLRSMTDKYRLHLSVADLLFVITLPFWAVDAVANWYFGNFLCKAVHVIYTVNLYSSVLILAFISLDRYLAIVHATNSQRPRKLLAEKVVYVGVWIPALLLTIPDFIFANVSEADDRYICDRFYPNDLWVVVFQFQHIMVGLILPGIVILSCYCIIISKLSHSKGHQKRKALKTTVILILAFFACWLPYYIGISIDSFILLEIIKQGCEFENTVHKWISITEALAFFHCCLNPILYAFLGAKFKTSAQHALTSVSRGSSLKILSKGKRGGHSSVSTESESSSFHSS", "settings": "MM cells in vivo, CXCR4 blockade; cited from earlier work"}, "CXCR4 [2]": {"molecular_target": "CXCR4 (Mus musculus, UniProt P70658)", "sequence (P70658 whole entry)": "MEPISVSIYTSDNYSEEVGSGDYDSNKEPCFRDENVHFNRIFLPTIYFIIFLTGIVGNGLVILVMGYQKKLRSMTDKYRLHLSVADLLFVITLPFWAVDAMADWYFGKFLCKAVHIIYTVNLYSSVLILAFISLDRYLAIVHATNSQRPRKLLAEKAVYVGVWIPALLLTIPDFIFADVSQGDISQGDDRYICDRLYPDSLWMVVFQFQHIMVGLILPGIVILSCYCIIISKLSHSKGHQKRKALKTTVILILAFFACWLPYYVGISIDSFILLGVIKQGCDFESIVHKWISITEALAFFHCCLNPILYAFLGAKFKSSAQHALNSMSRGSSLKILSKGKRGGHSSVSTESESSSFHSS", "settings": "GBM mouse xenograft, irradiation; cited from earlier work"}, "RPMI-8226 MM cells": {"tested_on": "RPMI-8226 MM cells", "experiment": "Chemosensitization coculture of RPMI-8226 MM cells with stromal MS-5 cells", "assay_type": "cell-based", "settings": "100 nM NOX-A12, 1 μM F-ara-A, 40 hours", "protocol": "In order to mimic the in vivo interaction of the BM microenvironment with leukemia cells, an in vitro coculture system with murine BM stromal MS-5 cells and the multiple myeloma (abbr. MM) cell line RPMI 8226 was established. Aim of the experiment was to show whether SDF-1 binding […] NOX-A12 sensitizes MM cells in coculture with stromal cells to effects of chemotherapeutic agents. Stromal MS-5 cells secreting SDF 1 were incubated with SDF-1 binding […] NOX-A12 or the non-functional revNOX-A12. The MM cell line RPMI-8226 was added to the confluent stromal cell layer. The cells were then incubated with the chemotherapeutic agent F ara A (Fludarabine) for 40 hours. Cell Viability viability was measured. The murine stromal cell line MS-5 (ACC 441) was purchased from the DSMZ, the Multiple Myeloma cell line RPMI8226 (CCL-155) was purchased from the ATCC. The Multiple Myeloma cell line RPMI8226 was maintained in RPMI medium 1640 GlutaMAX (Invitrogen) supplemented with 10% FBS (Biochrom) and penicillin-streptomycin, the MS-5 cells were cultured in MEM alpha GlutaMAX (Invitrogen) with 10% FBS and penicillin-streptomycin. […] Cell viability and cell number were determined by Flow Cytometry using the Guava EasyCyte 6HT/2L (Millipore)."}, "stromal MS-5 cells": {"tested_on": "stromal MS-5 cells", "experiment": "Viability of stromal MS-5 cells in the coculture", "assay_type": "cell-based, murine", "settings": "data not shown", "protocol": "The murine stromal cell line MS-5 (ACC 441) was purchased from the DSMZ, the Multiple Myeloma cell line RPMI8226 (CCL-155) was purchased from the ATCC. The Multiple Myeloma cell line RPMI8226 was maintained in RPMI medium 1640 GlutaMAX (Invitrogen) supplemented with 10% FBS (Biochrom) and penicillin-streptomycin, the MS-5 cells were cultured in MEM alpha GlutaMAX (Invitrogen) with 10% FBS and penicillin-streptomycin. For chemosensitization coculture experiments stromal MS-5 cells were seeded the day before onto 24-well plates (the inner eight wells) at a concentration of 8×10^4/mL/well in MEM alpha GlutaMAX medium (+10% FBS) and incubated at 37° C. in 5% CO2. The confluent stromal cell layer was washed and 0.5 mL RPMI medium 1640 (+1% FBS) was added to the wells. SDF-1 binding […] NOX-A12 or revNOX-A12 was subsequently added to the wells to a final concentration of 100 nM and incubated for four hours. 3.5×10^5 RPMI8226 cells in RPMI medium 1640 (+1% FBS) were added to the stromal cell layer. Four hours later, 1 μ[…] (Sigma Aldrich) was added to the cells when indicated. After 40 hours of incubation the cells were collected in 15 mL tubes, first the supernatant was harvested and then the attached cells were trypsinized including MS-5 cells. […] Cell viability and cell number were determined by Flow Cytometry using the Guava EasyCyte 6HT/2L (Millipore)."}}}
{"smiles": "c1cc(CN2CCCNCCNCCCNCC2)ccc1CN1CCCNCCNCCCNCC1", "note": "[AMD3100]", "values": [{"measurement": "tumor reduction induced by bortezomib", "setting": "CXCR4 [1]", "result": "enhanced tumor reduction induced by bortezomib"}, {"measurement": "influx of BMDCs in the irradiated tumor", "setting": "CXCR4 [2]", "result": "prevented the influx of BMDCs in the irradiated tumor"}]}
{"smiles": "Nc1nc(F)nc2c1ncn2[C@@H]1O[C@H](CO)[C@@H](O)[C@@H]1O", "note": "[F-ara-A, Fludarabine, reference compound]", "values": [{"measurement": "cell viability of RPMI-8226 cells cocultured with stromal MS-5 cells", "setting": "RPMI-8226 MM cells", "result": "no significant effect"}, {"measurement": "viability of stromal MS-5 cells", "setting": "stromal MS-5 cells", "result": "neither affected"}]}
